According to US9353096B2, “Substituted phenylcarbamate compounds” (Hoffmann-La Roche Inc., priority 2012, dated 2016):
Counter-ions that a name gives are not always drawn.

biological target: hTRPA1 (Homo sapiens, UniProt O75762); assay: Dose response calcium flux (FLIPR) assay, ChanTest hTRPA1-CHO stably transfected cell line, cinnamaldehyde agonist; format: cell-based; conditions: CHO-K1 Tet-On hTRPA1 cells, 100 uM cinnamaldehyde agonist, 30 min preincubation
Description: Dose Response Assay:ChanTest hTRPA1-CHO Stably Transfected Cell Line
CHO-K1 Tet-On_HOMSA_TRPA1_Clone_20
Growth Media for CHO-K1 Tet-On_HOMSA_TRPA1_Clone_20 • Ham's F-12 with 10% tetracycline-free FBS • 1× penicillin-streptomycin • 1× glutamax • 0.01 mg/ml Blasticidin • 0.40 mg/ml Zeocin • The cell line doubling rate was ˜15 h. […] Experiments were run at 24 h post induction.
Plating Conditions CHOK1/TRPA1 Cells: • Harvested cells with 0.025% trypsin/EDTA. • Resuspended cells in growth media without selection antibiotics. • Measured cell density and diluted to 2.4×10^5 cells/ml in media containing 1 ug/ml Doxycycline Plate 25 ul/well into 384 well black/clear tissue culture-treated plates. • Incubated overnight at 37° C.
Replacement Buffer: Hank's Balanced Salt Solution, 20 mM HEPES along with 0.005% BSA and 2× Probenecid
Dye Loading Buffer: Cal-3 NW Calcium dye was prepared by dissolving the contents of one vial with […] Hank's Balanced Salt Solution containing 20 mM HEPES.
AP-18, stock 10 mM, prepare 3.5× compound dilution in a Compound Buffer (HBSS/20 mM HEPES/0.005% BSA)—final concentration 10 uM.
Preparation of Cinnamaldehyde (Agonist Addition): • FW=132.16 • Specific gravity=1.046 gm/cc • 1.32 gm/1.046 gm/cc=1.26 ml of stock • Add 1.74 ml DMSO=3.3 M stock • Working solution 4.5× (final 100 uM in Compound Buffer: HBSS/20 mM HEPES/0.005% BSA)
Compounds dilutions were prepared from 5 or 10 mM stock (100% DMSO): • Adjustments of volumes and concentrations were made at time of titration to reflect desired final assay concentrations. • Compounds were tested at either 20 μM three folds dilution 11 steps out or 30 μM two folds dilution 11 steps out. • 3 μl of diluted compound were transferred into Weidmann 384-well plate in duplicates side-by-side. • Compound plates were resuspended with 100 ul of HBSS/20 mM HEPES/0.005% BSA buffer (Compound Buffer): • column 1A-H: buffer/DMSO (bk) • column 2A-H: AP-18 (control antagonist for CHOK1 TRPA1 cells) • column 1I-P: ATP (control for CHOK1 teton cells) • column 2I-P: 2APB (control antagonist for CHOK1/TRPM8 cells).
Growth media was removed from the cell plates (20 ul) and 20 μl of the Replacement Buffer was added followed by addition of 25 μl of diluted dye. All three steps were performed using a Plate Washer BioTek 407. The plates were then incubated for 30′ at RT.
After incubation, both the cell and compound plates were brought to the FLIPR and 20 μl of the diluted compounds/antagonist/bk were transferred to the cell plates by the FLIPR. Plates were then incubated for 30′ at room temperature. After 30′ incubation, plates were returned to the FLIPR and 20 μl of 4.5× Cinnamaldehyde was added to the cell plates. During the compound addition as well as agonist addition, fluorescence readings were taken simultaneously from all 384 wells of the cell plate every 1.5 seconds. Five readings were taken to establish a stable baseline, then 20 μl of sample was rapidly (30 ul/sec) and simultaneously added to each well of the cell plate. The fluorescence was continuously monitored before, during and after sample/agonist addition for a total elapsed time of 100 seconds (compound addition) and 120 seconds (agonist addition). Responses (increase in peak fluorescence) in each well following agonist addition was determined. The initial fluorescence reading from each well, prior to ligand stimulation, was used a zero baseline value for the data from that well.

Chain of hTRPA1 (O75762 whole entry): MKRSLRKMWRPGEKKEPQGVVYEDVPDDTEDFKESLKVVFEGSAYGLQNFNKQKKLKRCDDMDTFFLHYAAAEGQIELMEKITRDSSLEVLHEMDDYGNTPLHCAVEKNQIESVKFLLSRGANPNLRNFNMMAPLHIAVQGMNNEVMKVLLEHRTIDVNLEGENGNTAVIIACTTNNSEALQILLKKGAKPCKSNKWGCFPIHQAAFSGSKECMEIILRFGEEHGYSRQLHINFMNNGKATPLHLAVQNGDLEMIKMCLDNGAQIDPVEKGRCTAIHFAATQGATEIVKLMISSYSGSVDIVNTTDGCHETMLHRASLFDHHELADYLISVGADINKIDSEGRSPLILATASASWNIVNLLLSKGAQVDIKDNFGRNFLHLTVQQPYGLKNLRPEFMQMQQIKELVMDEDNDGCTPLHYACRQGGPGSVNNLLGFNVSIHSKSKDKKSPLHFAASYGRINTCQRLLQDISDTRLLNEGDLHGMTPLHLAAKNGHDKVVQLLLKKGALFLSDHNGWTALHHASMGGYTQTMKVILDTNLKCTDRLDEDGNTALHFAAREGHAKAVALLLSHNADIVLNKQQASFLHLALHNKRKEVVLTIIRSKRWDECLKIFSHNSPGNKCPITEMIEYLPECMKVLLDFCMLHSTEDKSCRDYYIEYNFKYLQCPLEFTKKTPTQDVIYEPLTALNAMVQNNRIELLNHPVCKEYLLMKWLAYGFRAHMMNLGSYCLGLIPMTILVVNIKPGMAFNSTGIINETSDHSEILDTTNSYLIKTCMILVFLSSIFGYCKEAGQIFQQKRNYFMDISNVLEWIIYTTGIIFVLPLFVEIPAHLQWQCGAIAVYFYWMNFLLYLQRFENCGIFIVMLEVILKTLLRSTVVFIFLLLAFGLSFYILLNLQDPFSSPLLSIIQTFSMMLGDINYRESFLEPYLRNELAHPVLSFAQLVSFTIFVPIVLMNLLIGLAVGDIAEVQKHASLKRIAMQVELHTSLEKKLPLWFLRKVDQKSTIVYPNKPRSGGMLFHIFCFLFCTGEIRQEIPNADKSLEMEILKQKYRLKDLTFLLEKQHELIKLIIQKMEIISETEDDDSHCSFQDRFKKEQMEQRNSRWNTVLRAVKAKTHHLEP

| Structure (SMILES) | IC50 |
| --- | --- |
| O=C(Nc1ccc(Cl)cc1)O[C@@H](CN1CCO[C@H](c2cc(Cl)cc(Cl)c2)C1)C(F)(F)F [Example 45, (4-Chlorophenyl)carbamic acid (S)-1-[(R)-2-(3,5-dichlorophenyl)-morpholin-4-ylmethyl]-2,2,2-trifluoroethyl ester hydrochloride] | 8.09 nM |
| COc1cccc(C[C@@H]2CN(C[C@H](OC(=O)Nc3ccc(Cl)cc3)C(F)(F)F)CCO2)n1 [Example 51, (4-Chlorophenyl)-carbamic acid (S)-2,2,2-trifluoro-1-[(R)-2-(6-methoxy-pyridin-2-ylmethyl)-morpholin-4-ylmethyl]ethyl ester] | 398 nM |
| O=C(Nc1ccc(Cl)c(F)c1)O[C@@H](CN1CCS(=O)(=O)[C@H](c2cccc(C(F)(F)F)c2)C1)C(F)(F)F [Example 20, (4-Chloro-3-fluorophenyl)-carbamic acid (S)-1-[(R)-1,1-dioxo-2-(3-trifluoromethylphenyl)-1λ^6-thiomorpholin-4-ylmethyl]-2,2,2-trifluoroethyl ester] | 74.3 nM |
| O=C(Nc1ccc(Cl)cc1)O[C@@H](CN1CCO[C@@H](c2ccc(C(F)(F)F)cc2)C1)C(F)(F)F (single isomer, unassigned) [Example 30, hydrochloride] | 198 nM |
| O=C(Nc1ccc(Cl)c(F)c1)O[C@@H](CN1CCO[C@H](c2cc(Cl)cc(Cl)c2)C1)C(F)(F)F [Example 46, (4-Chloro-3-fluorophenyl)carbamic acid (S)-1-[(R)-2-(3,5-dichlorophenyl)-morpholin-4-ylmethyl]-2,2,2-trifluoroethyl ester hydrochloride] | 16.9 nM |
| O=C(Nc1ccc(Cl)c(F)c1)O[C@@H](CN1CCO[C@H](c2ccc(C(F)(F)F)cc2)C1)C(F)(F)F [Example 31, (4-Chloro-3-fluorophenyl)carbamic acid (S)-2,2,2-trifluoro-1-[(R)-2-(4-trifluoromethylphenyl)-morpholin-4-ylmethyl]-ethyl ester hydrochloride] | 34.6 nM |
| O=C(Nc1ccc(Cl)cc1)O[C@@H](CN1CCOC(c2cccc(F)c2)C1)C(F)(F)F (stereo partly drawn) [Example 47, (4-Chlorophenyl)-carbamic acid (S)-2,2,2-trifluoro-1-[2-(3-fluorophenyl)-morpholin-4-ylmethyl]-ethyl ester hydrochloride] | 130 nM |
| COc1cccc(C2CN(C[C@H](OC(=O)Nc3ccc(Cl)cc3)C(F)(F)F)CCS2(=O)=O)c1 (stereo partly drawn) [Example 17, (4-Chlorophenyl)-carbamic acid (S)-2,2,2-trifluoro-1-[2-(3-methoxyphenyl)-1,1-dioxo-1λ^6-thiomorpholin-4-ylmethyl]-ethyl ester] | 390 nM |
| O=C(Nc1ccc(Cl)c(F)c1)O[C@@H](CN1CCO[C@H](c2cccc(C(F)(F)F)c2)C1)C(F)(F)F [Example 13, (4-Chloro-3-fluorophenyl)-carbamic acid (S)-2,2,2-trifluoro-1-[(R)-2-(3-trifluoromethylphenyl)-morpholin-4-ylmethyl]-ethyl ester hydrochloride] | 6.35 nM |
| O=C(Nc1ccc(Cl)c(F)c1)O[C@@H](CN1CCO[C@@H](c2ccc(C(F)(F)F)nc2)C1)C(F)(F)F (single isomer, unassigned) [Example 23, hydrochloride] | 781 nM |
| O=C(Nc1ccc(Cl)cc1)O[C@@H](CN1CCS(=O)(=O)CC1)C(F)(F)F [Example 48, (4-Chlorophenyl)-carbamic acid (S)-1-(1,1-dioxo-1λ^6-thiomorpholin-4-ylmethyl)-2,2,2-trifluoroethyl ester hydrochloride] | 3560 nM |
| Cc1ccc(NC(=O)O[C@@H](CN2CCOC(c3ccc(F)c(F)c3)C2)C(F)(F)F)cc1 (stereo partly drawn) [Example 37, p-Tolylcarbamic acid (S)-1-[2-(3,4-difluorophenyl)-morpholin-4-ylmethyl]-2,2,2-trifluoroethyl ester hydrochloride] | 458 nM |
